Laboratory results reported in patent US10487110B2, “Stabilized compounds having secondary structure motifs” (President and Fellows of Harvard College, priority 1999, dated 2019).
Bridge positions count the residues as written; N and C are the ends. Square brackets hold non-standard residues; d marks the D form. R‑13 = (R)-2-(2'-pentenyl)alanine; R‑14 = (R)-2-(2′-hexenyl)alanine; S‑14 = (S)-2-(2′-hexenyl)alanine; S‑16 = (S)-2-(2′-octenyl)alanine

Tests used:
trypsin = assay: Peptide trypsin digest (cleavage rate constants); assay type: in vitro ADME; conditions: 10% EtOH in 50 mM Tris pH 8.3, room temperature; for Cleavage rate constant, Metathesized and hydrogenated: metathesized and hydrogenated peptide; for Cleavage rate constant, Unmetathesized: unmetathesized peptide
Experimental: Peptide trypsin digest: A typical peptide trypsin digest experiment was performed by adding 5 μL of a 20× trypsin solution in 1 mM HCl to a 100 μL solution of peptide at 9 μM in 10% EtOH in 50 mM Tris at pH 8.3. The reaction was allowed to proceed at room temperature for 30 min at which time it was quenched by adding 100 μL of a 1% trifluoroacetic acid solution and frozen on dry ice. The sample was then thawed and injected into a reverse phase HPLC on a C18 column for quantitation at 280 nm. The cleavage rate constants were obtained by performing the digest experiments at multiple trypsin concentrations and fitting to a kinetic model that is first order in both enzyme and substrate concentration.

[1] = Circular dichroism measure of helical content; assay type: physicochemical
Experimental: Circular dichroism: Circular dichroism spectra were collected on a Jasco J-710 spectropolarimeter at 4° C. A typical sample was prepared by lyophilizing a measured volume of peptide solution and then resuspending it in 3 ml of 0.1% TFA in water to obtain a solution with a 280 nm absorbance of approximately 0.06 absorbance units. The sample was placed in a 1 cm CD cuvette and the ultraviolet absorbance was measured. The circular dichroism spectrum was measured and a baseline CD spectrum of 0.1% TFA in water was subtracted from it. The baseline subtracted CD spectrum was then normalized using the 280 nm absorbance.

[2] = Sedimentation equilibrium (analytical centrifugation); assay type: physicochemical; conditions: conditions of the circular dichroism experiments, 4° C.
Experimental: Analytical centrifugation: Sedimentation Equilibrium Experiments were performed on a Beckman Optima XL-A analytical centrifuge. The samples were centrifuged at 35,000 RPM at 4° C. and monitored at 280 nm. The data was fit to a single species model. The sedimentation equilibrium experiments were run on the identical samples from which circular dichroism spectra were recorded.

[3] = crosslinked versus corresponding uncrosslinked modified peptide

## Ri,i+7S(9): Ac-EWAEyAAAKFLzAHA-NH2 (SEQ ID NO: 2), (y,z) = (R-13,S-14), 9 carbon crosslink (Ac-EWAE[R‑13]AAAKFL[S‑14]AHA-NH2; staple 5-12)
trypsin
  Cleavage rate constant, Metathesized and hydrogenated: 0.37 M⁻¹ s⁻¹
[1]; [3]
  decrease of helical content following RCM: 21%

## Ri,i+7S(12): Ac-EWAEyAAAKFLzAHA-NH2 (SEQ ID NO: 2), (y,z) = (R-14,S-16), 12 carbon crosslink; cis and trans isomers (Ac-EWAE[R‑14]AAAKFL[S‑16]AHA-NH2; staple 5-12; also: cis and trans olefin isomers)
trypsin
  Cleavage rate constant, Metathesized and hydrogenated: 0.12 M⁻¹ s⁻¹

## Ri,i+7S(11): Ac-EWAEyAAAKFLzAHA-NH2 (SEQ ID NO: 2), (y,z) = (R-13,S-16), 11 carbon crosslink (Ac-EWAE[R‑13]AAAKFL[S‑16]AHA-NH2; staple 5-12)
trypsin
  Cleavage rate constant, Metathesized and hydrogenated: 0.058 M⁻¹ s⁻¹
  Cleavage rate constant, Unmetathesized: 0.50 M⁻¹ s⁻¹
[2]
  oligomeric state by sedimentation equilibrium: monomeric
[1]; circular dichroism
  helix stabilization (result in words): best helix stabilizer
[1]; crosslinked versus corresponding uncrosslinked modified peptide, for Ri,i+7S(12) cis and trans double bond isomers
  increase of helical content following RCM: 26%
[1]; versus unmodified control peptide
  increase of helical structure compared to unmodified control peptide: 44%

## Ri,i+7S(10): Ac-EWAEyAAAKFLzAHA-NH2 (SEQ ID NO: 2), (y,z) = (R-14,S-14), 10 carbon crosslink (Ac-EWAE[R‑14]AAAKFL[S‑14]AHA-NH2; staple 5-12)
trypsin
  Cleavage rate constant, Metathesized and hydrogenated: 0.34 M⁻¹ s⁻¹
[1]; [3]
  decrease of helical content following RCM: 12%

## Ac-EWAETAAAKFLAAHA-NH2 [Control, reference compound]
trypsin
  Cleavage rate constant, Unmetathesized: 2.39 M⁻¹ s⁻¹
trypsin; listed as unmodified control peptide
  Cleavage rate constant, Unmetathesized: 2.38 M⁻¹ s⁻¹
[1]; circular dichroism, water containing 0.1% trifluoroacetic acid, 4° C.
  helical content (α-helicity): ~40%
